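A five-concentration, 48-hour dose response in 96-well plates underlies each endpoint, interpolated linearly between surrounding concentrations. Definition used: TGI = concentration required for complete inhibition of growth.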
Assays:
Test in all cases: NCI tumour cell line growth inhibition, 48 h
A549 NSCLC = system: A549 NSCLC
SF-268 CNS = system: SF-268 CNS
SF-295 CNS = system: SF-295 CNS
HT29 colon = system: HT29 colon
LOX IMVI melanoma = system: LOX IMVI melanoma
T-47D breast = system: T-47D breast
NCI-H23 lung = system: NCI-H23 lung
COLO 205 colon = system: COLO 205 colon
DU-145 prostate = system: DU-145 prostate
OVCAR-3 ovarian = system: OVCAR-3 ovarian
UACC-62 melanoma = system: UACC-62 melanoma
SNB-75 CNS = system: SNB-75 CNS
U251 CNS = system: U251 CNS
OVCAR-4 ovarian = system: OVCAR-4 ovarian
SK-MEL-28 melanoma = system: SK-MEL-28 melanoma
SN12C renal = system: SN12C renal
KM12 colon = system: KM12 colon
NCI/ADR-RES ovarian = system: NCI/ADR-RES ovarian
IGROV1 ovarian = system: IGROV1 ovarian
SK-MEL-5 melanoma = system: SK-MEL-5 melanoma
HOP-92 NSCLC = system: HOP-92 NSCLC
TK-10 renal = system: TK-10 renal
MDA-MB-435 = system: MDA-MB-435
MOLT-4 leukemia = system: MOLT-4 leukemia
A498 renal = system: A498 renal
RXF 393 renal = system: RXF 393 renal
CAKI-1 renal = system: CAKI-1 renal
NCI-H522 lung = system: NCI-H522 lung
ACHN renal = system: ACHN renal
EKVX NSCLC = system: EKVX NSCLC
786-0 renal = system: 786-0 renal
UO-31 renal = system: UO-31 renal
HCC-2998 colon = system: HCC-2998 colon
SK-OV-3 ovarian = system: SK-OV-3 ovarian
RPMI-8226 leukemia = system: RPMI-8226 leukemia
SK-MEL-2 melanoma = system: SK-MEL-2 melanoma
MCF7 breast = system: MCF7 breast
OVCAR-8 ovarian = system: OVCAR-8 ovarian
MDA-MB-231 breast = system: MDA-MB-231 breast
HCT-15 colon = system: HCT-15 colon
OVCAR-5 ovarian = system: OVCAR-5 ovarian
SW-620 colon = system: SW-620 colon
MALME-3M melanoma = system: MALME-3M melanoma
M14 melanoma = system: M14 melanoma
HS 578T breast = system: HS 578T breast
HCT-116 colon = system: HCT-116 colon
MDA-N = system: MDA-N
NCI-H460 lung = system: NCI-H460 lung
BT-549 breast = system: BT-549 breast
HOP-62 NSCLC = system: HOP-62 NSCLC
SF-539 CNS = system: SF-539 CNS
SR leukemia = system: SR leukemia
UACC-257 melanoma = system: UACC-257 melanoma
SNB-19 CNS = system: SNB-19 CNS
PC-3 prostate = system: PC-3 prostate
K-562 leukemia = system: K-562 leukemia
HL-60(TB) leukemia = system: HL-60(TB) leukemia
NCI-H226 lung = system: NCI-H226 lung
CCRF-CEM leukemia = system: CCRF-CEM leukemia

Compound CC(=O)Oc1ccc(/C=C/C(=O)NCCOC(=O)/C=C/c2ccc(OC(C)=O)c(OC(C)=O)c2)cc1OC(C)=O has a TGI (A549 NSCLC) greater than 100 µM, a TGI (SF-268 CNS) greater than 100 µM and a TGI (SF-295 CNS) of 76.7 µM. For the same compound, the TGI (HT29 colon) was greater than 100 µM, the TGI (LOX IMVI melanoma) was 38.6 µM and the TGI (T-47D breast) was 98.9 µM. For the same compound, the TGI (NCI-H23 lung) was 79.4 µM, the TGI (COLO 205 colon) was greater than 100 µM and the TGI (DU-145 prostate) was greater than 100 µM. For the same compound, the TGI (OVCAR-3 ovarian) was 42 µM, the TGI (UACC-62 melanoma) was 49.1 µM and the TGI (SNB-75 CNS) was 79.6 µM. It also gave a TGI (U251 CNS) greater than 100 µM, a TGI (OVCAR-4 ovarian) greater than 100 µM and a TGI (SK-MEL-28 melanoma) greater than 100 µM. For the same compound, the TGI (SN12C renal) was 68.5 µM, the TGI (KM12 colon) was greater than 100 µM and the TGI (NCI/ADR-RES ovarian) was greater than 100 µM. The TGI (IGROV1 ovarian) was greater than 100 µM, the TGI (SK-MEL-5 melanoma) was 47.1 µM and the TGI (HOP-92 NSCLC) was 95.6 µM. It also gave a TGI (TK-10 renal) greater than 100 µM, a TGI (MDA-MB-435) greater than 100 µM and a TGI (MOLT-4 leukemia) greater than 100 µM. For the same compound, the TGI (A498 renal) was greater than 100 µM, the TGI (RXF 393 renal) was 47.4 µM and the TGI (CAKI-1 renal) was greater than 100 µM. The TGI (NCI-H522 lung) was 29.6 µM, the TGI (ACHN renal) was greater than 100 µM and the TGI (EKVX NSCLC) was greater than 100 µM. The TGI (786-0 renal) was 84.9 µM, the TGI (UO-31 renal) was 83.3 µM and the TGI (HCC-2998 colon) was greater than 100 µM. The TGI (SK-OV-3 ovarian) was greater than 100 µM, the TGI (RPMI-8226 leukemia) was 90.5 µM and the TGI (SK-MEL-2 melanoma) was greater than 100 µM. It also gave a TGI (MCF7 breast) greater than 100 µM, a TGI (OVCAR-8 ovarian) greater than 100 µM and a TGI (MDA-MB-231 breast) greater than 100 µM. The TGI (HCT-15 colon) was greater than 100 µM, the TGI (OVCAR-5 ovarian) was 97.6 µM and the TGI (SW-620 colon) was 61.8 µM. For the same compound, the TGI (MALME-3M melanoma) was greater than 100 µM, the TGI (M14 melanoma) was 74.5 µM and the TGI (HS 578T breast) was greater than 100 µM. For the same compound, the TGI (HCT-116 colon) was 39.2 µM, the TGI (MDA-N) was greater than 100 µM and the TGI (NCI-H460 lung) was greater than 100 µM. It also gave a TGI (BT-549 breast) greater than 100 µM, a TGI (HOP-62 NSCLC) greater than 100 µM and a TGI (SF-539 CNS) greater than 100 µM. It also gave a TGI (SR leukemia) greater than 100 µM, a TGI (UACC-257 melanoma) greater than 100 µM and a TGI (SNB-19 CNS) greater than 100 µM. It also gave a TGI (PC-3 prostate) greater than 100 µM and a TGI (K-562 leukemia) greater than 100 µM.
O=S(=O)(O)c1ccc2c(N=Nc3c(O)ccc4ccccc34)cccc2c1 gave a TGI (A549 NSCLC) greater than 100 µM, a TGI (SF-268 CNS) greater than 100 µM and a TGI (SF-295 CNS) greater than 100 µM. It also gave a TGI (HT29 colon) greater than 100 µM, a TGI (LOX IMVI melanoma) greater than 100 µM and a TGI (T-47D breast) greater than 100 µM. It also gave a TGI (NCI-H23 lung) greater than 100 µM, a TGI (COLO 205 colon) greater than 100 µM and a TGI (HL-60(TB) leukemia) greater than 100 µM. For the same compound, the TGI (DU-145 prostate) was greater than 100 µM, the TGI (OVCAR-3 ovarian) was greater than 100 µM and the TGI (UACC-62 melanoma) was greater than 100 µM. It also gave a TGI (SNB-75 CNS) greater than 100 µM, a TGI (U251 CNS) greater than 100 µM and a TGI (OVCAR-4 ovarian) greater than 100 µM. It also gave a TGI (SK-MEL-28 melanoma) greater than 100 µM, a TGI (SN12C renal) greater than 100 µM and a TGI (KM12 colon) greater than 100 µM. The TGI (NCI/ADR-RES ovarian) was greater than 100 µM, the TGI (IGROV1 ovarian) was greater than 100 µM and the TGI (SK-MEL-5 melanoma) was greater than 100 µM. The TGI (HOP-92 NSCLC) was greater than 100 µM, the TGI (TK-10 renal) was greater than 100 µM and the TGI (MDA-MB-435) was greater than 100 µM. It also gave a TGI (A498 renal) greater than 100 µM, a TGI (RXF 393 renal) greater than 100 µM and a TGI (CAKI-1 renal) greater than 100 µM. The TGI (NCI-H522 lung) was greater than 100 µM, the TGI (ACHN renal) was greater than 100 µM and the TGI (EKVX NSCLC) was greater than 100 µM. For the same compound, the TGI (786-0 renal) was greater than 100 µM, the TGI (UO-31 renal) was greater than 100 µM and the TGI (SK-OV-3 ovarian) was greater than 100 µM. For the same compound, the TGI (RPMI-8226 leukemia) was greater than 100 µM, the TGI (SK-MEL-2 melanoma) was greater than 100 µM and the TGI (MCF7 breast) was greater than 100 µM. For the same compound, the TGI (OVCAR-8 ovarian) was greater than 100 µM, the TGI (MDA-MB-231 breast) was greater than 100 µM and the TGI (HCT-15 colon) was greater than 100 µM. The TGI (OVCAR-5 ovarian) was greater than 100 µM, the TGI (SW-620 colon) was greater than 100 µM and the TGI (MALME-3M melanoma) was greater than 100 µM. It also gave a TGI (M14 melanoma) greater than 100 µM, a TGI (HS 578T breast) greater than 100 µM and a TGI (HCT-116 colon) greater than 100 µM. For the same compound, the TGI (NCI-H226 lung) was greater than 100 µM, the TGI (MDA-N) was greater than 100 µM and the TGI (NCI-H460 lung) was greater than 100 µM. For the same compound, the TGI (BT-549 breast) was greater than 100 µM, the TGI (HOP-62 NSCLC) was greater than 100 µM and the TGI (SF-539 CNS) was greater than 100 µM. It also gave a TGI (CCRF-CEM leukemia) greater than 100 µM, a TGI (SR leukemia) greater than 100 µM and a TGI (UACC-257 melanoma) greater than 100 µM. For the same compound, the TGI (SNB-19 CNS) was greater than 100 µM, the TGI (PC-3 prostate) was greater than 100 µM and the TGI (K-562 leukemia) was 98.1 µM.
With C=CC(C)(O)CCC1C(=C)C(O)CC2C(C)(C)CCCC12C (stereo unspecified) the TGI (A549 NSCLC) was 54.9 µM, the TGI (SF-268 CNS) was 38 µM and the TGI (SF-295 CNS) was 48 µM. The TGI (HT29 colon) was 33 µM, the TGI (LOX IMVI melanoma) was 38.7 µM and the TGI (T-47D breast) was 93.6 µM. The TGI (NCI-H23 lung) was 38.3 µM, the TGI (COLO 205 colon) was 29.4 µM and the TGI (HL-60(TB) leukemia) was 35.9 µM. It also gave a TGI (DU-145 prostate) of 37.2 µM, a TGI (OVCAR-3 ovarian) of 39.9 µM and a TGI (UACC-62 melanoma) of 29.8 µM. It also gave a TGI (SNB-75 CNS) greater than 100 µM, a TGI (U251 CNS) of 28.8 µM and a TGI (OVCAR-4 ovarian) of 47.5 µM. For the same compound, the TGI (SK-MEL-28 melanoma) was 36.8 µM, the TGI (SN12C renal) was 33 µM and the TGI (KM12 colon) was 52.1 µM. It also gave a TGI (NCI/ADR-RES ovarian) of 41.1 µM, a TGI (IGROV1 ovarian) of 52.2 µM and a TGI (SK-MEL-5 melanoma) of 29.5 µM. The TGI (HOP-92 NSCLC) was 34 µM, the TGI (TK-10 renal) was 47.5 µM and the TGI (MDA-MB-435) was 41.8 µM. It also gave a TGI (MOLT-4 leukemia) of 31.2 µM, a TGI (A498 renal) of 33.3 µM and a TGI (RXF 393 renal) of 29.5 µM. For the same compound, the TGI (CAKI-1 renal) was 68.2 µM, the TGI (NCI-H522 lung) was 34.1 µM and the TGI (ACHN renal) was 70.4 µM. For the same compound, the TGI (EKVX NSCLC) was 36.8 µM, the TGI (786-0 renal) was 32.8 µM and the TGI (UO-31 renal) was 28.5 µM. The TGI (HCC-2998 colon) was 33.2 µM, the TGI (SK-OV-3 ovarian) was greater than 100 µM and the TGI (RPMI-8226 leukemia) was 58.2 µM. It also gave a TGI (SK-MEL-2 melanoma) of 31.1 µM, a TGI (MCF7 breast) of 60 µM and a TGI (OVCAR-8 ovarian) of 71.4 µM. It also gave a TGI (MDA-MB-231 breast) of 31.8 µM, a TGI (HCT-15 colon) of 33.3 µM and a TGI (OVCAR-5 ovarian) of 41.7 µM. It also gave a TGI (SW-620 colon) of 43.5 µM, a TGI (MALME-3M melanoma) of 34.8 µM and a TGI (M14 melanoma) of 30 µM. It also gave a TGI (HS 578T breast) of 50.3 µM, a TGI (HCT-116 colon) of 31.8 µM and a TGI (NCI-H226 lung) of 29.2 µM. For the same compound, the TGI (MDA-N) was 34.6 µM, the TGI (NCI-H460 lung) was 33.5 µM and the TGI (BT-549 breast) was 32.4 µM. For the same compound, the TGI (HOP-62 NSCLC) was 43.6 µM, the TGI (SF-539 CNS) was 31.7 µM and the TGI (CCRF-CEM leukemia) was 45.4 µM. For the same compound, the TGI (UACC-257 melanoma) was 39 µM, the TGI (SNB-19 CNS) was 35.6 µM and the TGI (PC-3 prostate) was 32.2 µM. For the same compound, the TGI (K-562 leukemia) was 33.2 µM.
